Read-outs that look alike come from different tables or passages of the source.
Tests used:
MIN6 cells = assay: Insulin secretion from MIN6 cells; format: cell-based, mouse; settings: 25 mM glucose
Description: MIN6 cells (Miyazaki et al. (1990) Endocrinol. 127, 126) at passages 37-47 were maintained as previously described (Nikolova et al. (2006) Dev. Cell 10, 397). The cells were electroporated with pEGFP, pEGFP-wtEphA5 (Gao et al. (1998) Proc. Natl. Acad. Sci. U.S.A. 95, 5329), pEGFP-DN-EphA5 (Gao et al. (1998) Proc. Natl. Acad. Sci. U.S.A. 95, 5329), pEGFP-ephrin-A5, (Wimmer-Kleikamp et al. (2004) J. Cell Biol. 164, 661), pEGFP-wtRac1, pEGFP-DN-Rac1 (Rac1N17) (Hall (2005) Biochem. Soc. Trans. 33, 891) and pcDNA-Cx36 constructs (Ravier et al. (2005) Diabetes 54, 1798); siRNA against firefly luciferase (control siRNA), ephrin-A5 and Cx36 by using Amaxa nucleofection (Amaxa biosystems).
For insulin secretion measurements, islets or MIN6 cells were starved for 1 h in Krebs Ringer Buffer (KRB) containing 115 mM NaCl, 5 mM KCl, 1.2 mM KH2PO4, 1 mM MgSO4, 2.5 mM CaCl2, 24 mM NaHCO3, 2 mM glucose, 25 mM HEPES (pH 7.4), and 0.1% bovine serum albumin. After starvation, medium was exchanged for the same buffer +/− Fc fusion proteins to measure basal secretion, or for KRB containing 25 mM glucose +/− Fc fusion proteins to measure glucose-stimulated insulin secretion, during 1 h incubation. When Fc fusion proteins were used, islets were continuously shaken (300-500 rpm) to facilitate access of Fc fusion proteins to islet β-cells. The amount of secreted insulin was measured in the medium, and islets or MIN6 cells were subsequently dissolved in RIPA buffer to measure insulin content and total protein content. Secreted insulin was normalized to total insulin content and total protein content, and presented as % of basal control insulin secretion. In all histograms, the first column represents the basal control (=100%), except in FIG. 3C, in which the third column is taken as basal control. Secreted insulin and insulin content were measured by using ultra-sensitive rat insulin ELISA kit (Crystal Chem inc.). The total protein content was measured using BCA kit (Molecular Probes). […]

mouse pancreatic islets [1] = settings: 10 μM, Gogg et al. (2001); cited from earlier work
mouse pancreatic islets [2] = assay: Insulin secretion from mouse pancreatic islets; format: cell-based; settings: 25 mM glucose, 1 h; Fc fusion proteins 4 μg/ml, peroxovanadate 10 μM; compared with Fc
Description: Pancreatic islets were isolated from NMRI mice for all experiments, except for the experiments with male ephrin-A5-/- and control littermates, which were C57BL/6 (Knoll et al. (2001) Development 128, 895). All mice used were 8-10 weeks old. Human pancreatic islets were isolated from a perfused human pancreas by using a protocol approved by the Ethical Research Committee of the Technical University Medical School Dresden and according to the law of the State of Saxony. Mouse and human islets were cultured overnight in Dulbecco's modified Eagle's medium (DMEM) containing 11 mM glucose (Gibco), supplemented with 10% heat inactivated fetal calf serum (FCS), 100U/ml Penicillin, 100 μg/ml Streptomycin, 1.5 g/L NaHCO3 in a humidified atmosphere (5% CO2, 37° C.). […]
For insulin secretion measurements, islets or MIN6 cells were starved for 1 h in Krebs Ringer Buffer (KRB) containing 115 mM NaCl, 5 mM KCl, 1.2 mM KH2PO4, 1 mM MgSO4, 2.5 mM CaCl2, 24 mM NaHCO3, 2 mM glucose, 25 mM HEPES (pH 7.4), and 0.1% bovine serum albumin. […] The amount of secreted insulin was measured in the medium, and islets or MIN6 cells were subsequently dissolved in RIPA buffer to measure insulin content and total protein content. […] Secreted insulin and insulin content were measured by using ultra-sensitive rat insulin ELISA kit (Crystal Chem inc.). The total protein content was measured using BCA kit (Molecular Probes). […]

EphA5 = EphA5 immunoprecipitation and phosphotyrosine Western blot, MIN6 cells; format: cell-based, mouse; settings: 10 μM, 25 mM glucose, 5 min
Experimental: MIN6 cells and pancreatic islets were lysed in RIPA buffer, supplemented with protease and phosphatase inhibitors. 1 μg total protein, isolated from MIN6 cell lysates or 500 ng total protein, isolated from islet lysates, were used for immunoprecipitation with 1:1,000-diluted rabbit-anti-EphA5 (Santa Cruz) and protein-A beads (Amersham). For immunoprecipitation/pull-down of Rac1-GTP with Pak1-PBD (P21-activated kinase-1-P21 Binding Domain) and Westem blots, a Rac1 Activation StressXPress Kit (Biomol) was used. The immunoprecipitates were separated on 4-12% gradient SDS-polyacrylamide gels (Invitrogen) and transferred onto a PVDF membrane (Amersham). For western blots, 1:500-diluted rabbit-anti-EphA5 antibody (Santa Cruz), 1:1,000-diluted mouse-anti-PY antibody (Biomol) and 1:200-diluted rabbit-anti-Rac1 antibody (Santa Cruz) were used. 1:10,000-diluted HRP-conjugated donkey-anti-rabbit antibody (Dianova) and 1:5,000-diluted HRP-conjugated goat-anti-mouse antibody (Dianova) were used as secondary antibodies. Western blots were developed using an ECL system (Amersham). The intensities of EphA5 and Rac1 bands were normalized to the intensities of total EphA5 and Rac1, respectively, and presented as % of basal control. The intensities of the bands were quantified by using TotalLab software (Stratagene).

peroxovanadate
glucose-stimulated insulin secretion (MIN6 cells; confluent MIN6 cells, 1 h, Fc fusion proteins 4 μg/ml, peroxovanadate 10 μM, compared with Fc): reduced
glucose-stimulated insulin secretion (mouse pancreatic islets [1]): strongly reduced
glucose-stimulated insulin secretion (mouse pancreatic islets [2]): reduced
glucose-induced EphA5 dephosphorylation (EphA5): effectively prevented
EphA5 phosphorylation levels at stimulatory conditions (EphA5; relative to basal levels): increased

B1: wt EphA5: full-length EphA5 protein over-expressed in MIN6 cells from pEGFP-wtEphA5 (protein, UniProt Q60629 1-876, looked up)
chain: MRGSGPRGAGHRRTQGRGGGDDTPRVPASLAGCYSAPLKGPLWTCLLLCAALRTLLASPSNEVNLLDSRTVMGDLGWIAFPKNGWEEIGEVDENYAPIHTYQVCKVMEQNQNNWLLTSWISNEGASRIFIELKFTLRDCNSLPGGLGTCKETFNMYYFESDDENGRSIKENQYIKIDTIAADESFTELDLGDRVMKLNTEVRDVGPLSKKGFYLAFQDVGACIALVSVRVYYKKCPSVVRHLAIFPDTITGADSSQLLEVSGSCVNHSVTDDPPKMHCSAEGEWLVPIGKCMCKAGYEEKNGTCQAPSPVTNVKKGKIAKNSISLSWQEPDRPNGIILEYEIKYFEKDQETSYTIIKSKETSITAEGLKPASVYVFQIRARTAAGYGVFSRRFEFETTPVSVAASNDQSQIPIIAVSVTVGVILLAVMIGFLLSGSCCDCGCGRASSLCAVAHPSLIWRCGYSKAKQDPEEEKMHFHNGHIKLPGVRTYIDPHTYEDPNQAVHEFAKEIEASCITIERVIGAGEFGEVCSGRLKLPGKRELPVAIKTLKVGYTEKQRRDFLGEASIMGQFDHPNIIHLEGVVTKSKPVMIVTEYMENGSLDTFLKKNDGQFTVIQLVGMLRGIAAGMKYLSDMGYVHRDLAARNILINSNLVCKVSDFGLSRVLEDDPEAAYTTRGGKIPIRWTAPEAIAFRKFTSSSDVWSYGIVMWEVVSYGERPYWEMTNQDVIKAVEEGYRLPSPMDCPAALYQLMLDCWQKDRNSRPKFDEIVNMLDKLIRNPSSLKTLVNASSRVSTLLAEHGSLGSGAYRSVGEWLEAIKMGRYTEIFMENGYSSMDAVAQVTLEDLRRLGVTLVGHQKKIMSSLQEMKVQMVNGMVPV
modifications: full-length EGFP fusion
notes: full-length EphA5 protein over-expressed in MIN6 cells from pEGFP-wtEphA5
glucose-stimulated insulin secretion (MIN6 cells; over-expression in confluent MIN6 cell monolayers, vs empty vector): decreased
glucose-stimulated insulin secretion in PV-treated MIN6 cells (MIN6 cells; over-expression, 10 μM peroxovanadate, vs empty vector/PV): reduced

— patent publication US20100021950A1, “SCREENING METHOD FOR ANTI-DIABETIC COMPOUNDS” (priority 2007, published 2010)
